The record followed here is ChEMBL document CHEMBL4414606, “Bioactive Streptoglutarimides A-J from the Marine-Derived Streptomyces sp. ZZ741” (J Nat Prod, 2019).

One assay concerns Staphylococcus aureus. Nature of the assay: Antibacterial activity against methicillin resistant Staphylococcus aureus assessed as reduction in bacterial growth incubated for 12 hrs by microdilution method. Type of assay: functional.
Another assay has as its system Candida albicans. The assay is described as follows: Antifungal activity against Candida albicans assessed as reduction in fungal growth incubated for 12 hrs by microdilution method. Type of assay: functional. Background: In broth dilution the organism is exposed to a series of concentrations in liquid medium.
In another assay the test system is Escherichia coli. The assay is described as follows: Antibacterial activity against Escherichia coli assessed as reduction in bacterial growth incubated for 12 hrs by microdilution method. In kind it is functional.
The test system of the next assay is U-251. The assay is described as follows: Antiproliferative activity against human U251 cells assessed as reduction in cell viability after 72 hrs by SRB assay. Type of assay: functional, cell-based. On the technique in general: In SRB staining, fixed cells bind dye roughly in proportion to their protein.
The subject of another assay is U-87 MG. The assay is described as follows: Antiproliferative activity against human U87MG cells assessed as reduction in cell viability after 72 hrs by SRB assay. Type of assay: functional, cell-based, U-87MG ATCC.
Setting [1] is: Homo sapiens, U-251, 72 h, read-out: IC50.
Setting [2] is: Homo sapiens, U-87 MG, 72 h, read-out: IC50.

Values after ≈ are worked out from the molar mass of the structure shown.

As usually defined, the MIC is the lowest concentration that inhibits growth of the organism. In general, IC50 refers to the concentration at which inhibition is half-maximal.

Regarding `CC1=C[C@@](C)(CO)O/C1=C\C(=O)CC1CC(=O)NC(=O)C1`, the minimum inhibitory concentration (MIC) in the assay with Staphylococcus aureus turned out to be 10 µg/mL (≈ 34.1 µM); in the assay on Candida albicans it was 15 µg/mL (≈ 51.1 µM); in the assay on Escherichia coli it was 8 µg/mL (≈ 27.3 µM). Moreover, the IC50 result with U-251 (u-251) and in the assay on U-87 MG (u-87mg atcc) was “Not Active” each time.

`C[C@H]1C[C@H]([C@H](O)CC2CC(=O)NC(=O)C2)C(=O)[C@@](C)(O)C1`: the MIC came out at 11 µg/mL (≈ 37 µM) with Staphylococcus aureus, 12 µg/mL (≈ 40.4 µM) in the assay on Candida albicans and 9 µg/mL (≈ 30.3 µM) with Escherichia coli. In addition, the IC50 entry with U-251 (u-251) and in the assay with U-87 MG (u-87mg atcc) was “Not Active” each time.

As to `C[C@H](CO)C[C@@]1(C)OC(CC2CC(=O)NC(=O)C2)=CC1=O`, the results for the MIC with Staphylococcus aureus, in the assay on Candida albicans and in the assay on Escherichia coli were 10 µg/mL (≈ 33.9 µM), 8 µg/mL (≈ 27.1 µM) and 8 µg/mL (≈ 27.1 µM), respectively. Moreover, the concentration for half-maximal inhibition (IC50) result in the assay on U-251 (u-251) and in the assay with U-87 MG (u-87mg atcc) was “Not Active” each time.

As to `CN[C@H](CC(C)C)C(=O)N[C@H]1C(=O)N[C@@H](CC(N)=O)C(=O)N[C@H]2C(=O)N[C@H]3C(=O)N[C@H](C(=O)N[C@H](C(=O)O)c4cc(O)cc(O)c4-c4cc3ccc4O)[C@H](O)c3ccc(c(Cl)c3)Oc3cc2cc(c3O[C@@H]2O[C@H](CO)[C@@H](O)[C@H](O)[C@H]2O[C@H]2C[C@](C)(N)[C@H](O)[C@H](C)O2)Oc2ccc(cc2Cl)[C@H]1O` [VANCOMYCIN], the minimum inhibitory concentration (MIC) with Staphylococcus aureus came to 0.2 µg/mL (≈ 0.138 µM).

Consider `C[C@](O)(CO)C[C@@]1(C)OC(CC2CC(=O)NC(=O)C2)=CC1=O`, for which the MIC was 10 µg/mL (≈ 32.1 µM) in the assay with Staphylococcus aureus, 18 µg/mL (≈ 57.8 µM) in the assay on Candida albicans and 12 µg/mL (≈ 38.5 µM) in the assay with Escherichia coli. The IC50 result in the assay with U-251 (u-251) and in the assay on U-87 MG (u-87mg atcc) was “Not Active” in each case.

In the case of `C[C@H]1C[C@@](C)(O)C[C@@H]([C@H](O)CC2CC(=O)NC(=O)C2)C1=O`, the MIC in the assay with Staphylococcus aureus was found to be 10 µg/mL (≈ 33.6 µM); with Candida albicans, 18 µg/mL (≈ 60.5 µM); in the assay on Escherichia coli it was 10 µg/mL (≈ 33.6 µM). Moreover, the concentration for half-maximal inhibition (IC50) was 50 nM in the assay on U-251 (setting [1]) and 220 nM in the assay on U-87 MG (setting [2]).

Turning to `C[C@@H]1C[C@](C)(CO)O/C1=C\C(=O)CC1CC(=O)NC(=O)C1`, the MIC with Staphylococcus aureus amounted to 9 µg/mL (≈ 30.5 µM); with Candida albicans, 16 µg/mL (≈ 54.2 µM); in the assay with Escherichia coli, 9 µg/mL (≈ 30.5 µM). Also, the IC50 entry in the assay with U-251 (u-251) and with U-87 MG (u-87mg atcc) was “Not Active” throughout.

`C[C@@H]1C[C@@H]([C@H](O)CC2CC(=O)NC(=O)C2)C(=O)[C@@H](C)[C@@H]1O`: the MIC in the assay with Staphylococcus aureus turned out to be 9 µg/mL (≈ 30.3 µM); in the assay on Candida albicans, 15 µg/mL (≈ 50.4 µM); in the assay with Escherichia coli, 10 µg/mL (≈ 33.6 µM). Moreover, the half-inhibitory concentration (IC50) turned out to be 1500 nM with U-251 (setting [1]) and 3800 nM in the assay with U-87 MG (setting [2]).

In the case of GENTAMICIN, the minimum inhibitory concentration (MIC) with Escherichia coli is 1.25 µg/mL.

Turning to `C[C@@H]1C/C(=C/CC2CC(=O)NC(=O)C2)C(=O)[C@@H](C)[C@@H]1O`, the minimum inhibitory concentration (MIC) came to 10 µg/mL (≈ 35.8 µM) with Staphylococcus aureus, 18 µg/mL (≈ 64.4 µM) in the assay on Candida albicans and 10 µg/mL (≈ 35.8 µM) in the assay with Escherichia coli. Moreover, the IC50 result with U-251 (u-251) and with U-87 MG (u-87mg atcc) was “Not Active” each time.

On to `C[C@@H]1C[C@@](C)(CO)O/C1=C\C(=O)CC1CC(=O)NC(=O)C1`, for which the values for the minimum inhibitory concentration (MIC) in the assay with Staphylococcus aureus, in the assay with Candida albicans and in the assay on Escherichia coli were 11 µg/mL (≈ 37.2 µM), 20 µg/mL (≈ 67.7 µM) and 9 µg/mL (≈ 30.5 µM), respectively. Besides, the IC50 result in the assay with U-251 (u-251) and in the assay with U-87 MG (u-87mg atcc) was “Not Active” each time.

As for `C[C@H](CO)[C@@H]1OC(CC2CC(=O)NC(=O)C2)=CC(=O)[C@H]1C`, the MIC in the assay on Staphylococcus aureus stood at 10 µg/mL (≈ 33.9 µM); with Candida albicans, 18 µg/mL (≈ 60.9 µM); with Escherichia coli, 12 µg/mL (≈ 40.6 µM). Moreover, the half-maximal inhibitory concentration (IC50) result with U-251 (u-251) and with U-87 MG (u-87mg atcc) was “Not Active” in each case.

Turning to `COc1cccc2c1C(=O)c1c(O)c3c(c(O)c1C2=O)C[C@@](O)(C(=O)CO)C[C@@H]3O[C@H]1C[C@H](N)[C@H](O)[C@H](C)O1` [DOXORUBICIN], the values for the half-inhibitory concentration (IC50) with U-251 (setting [1]) and in the assay on U-87 MG (setting [2]) were 6800 nM and 1600 nM, respectively.

For the compound `C[C@H](CO)C[C@@]1(C)OC(CC2(O)CC(=O)NC(=O)C2)=CC1=O`, the MIC was found to be 9 µg/mL (≈ 28.9 µM) in the assay on Staphylococcus aureus, 20 µg/mL (≈ 64.2 µM) in the assay with Candida albicans and 10 µg/mL (≈ 32.1 µM) with Escherichia coli. Further, the IC50 entry with U-251 (u-251) and with U-87 MG (u-87mg atcc) was “Not Active” each time.

For `C[C@@H]1[C@H](O)[C@@H](C)/C=C/C=C/C=C/C=C/C=C/C=C/C=C/[C@H](O[C@@H]2O[C@H](C)[C@@H](O)[C@H](N)[C@@H]2O)C[C@@H]2O[C@](O)(C[C@@H](O)C[C@@H](O)[C@H](O)CC[C@@H](O)C[C@@H](O)CC(=O)O[C@H]1C)C[C@H](O)[C@H]2C(=O)O` [AMPHOTERICIN B], in the assay with Candida albicans, the MIC amounted to 0.75 µg/mL (≈ 0.812 µM).
